Target: T1, dihydrofolate reductase (DHFR) (Homo sapiens, UniProt P00374)
T1 sequence (P00374 1-187): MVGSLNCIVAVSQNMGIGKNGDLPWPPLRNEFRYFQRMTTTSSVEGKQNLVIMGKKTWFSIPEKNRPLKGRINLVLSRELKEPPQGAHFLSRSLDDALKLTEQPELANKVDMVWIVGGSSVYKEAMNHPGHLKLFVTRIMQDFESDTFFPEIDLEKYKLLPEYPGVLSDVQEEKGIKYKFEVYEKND
Experiment: spectrophotometric DHFR activity assay
Assay type: biochemical

Ki: 0.045 µM
SMILES: C#CCC(Cc1cnc2nc(N)nc(N)c2n1)c1ccc(C(=O)NC(CCC(=O)O)C(=O)O)cc1 (racemic) [pralatrexate]
